Results reported in ChEMBL document CHEMBL4680201, “Design, synthesis, and pharmacological evaluation of 4- or 6-phenyl-pyrimidine derivatives as novel and selective Janus kinase 3 inhibitors” (Eur J Med Chem, 2020).
Active and inactive are the calls of the source. No cut-off for these calls is given here.

Assays:
[1] = target: T1, Tyrosine-protein kinase JAK3 (Homo sapiens, UniProt P52333)
T1 sequence (P52333 whole entry): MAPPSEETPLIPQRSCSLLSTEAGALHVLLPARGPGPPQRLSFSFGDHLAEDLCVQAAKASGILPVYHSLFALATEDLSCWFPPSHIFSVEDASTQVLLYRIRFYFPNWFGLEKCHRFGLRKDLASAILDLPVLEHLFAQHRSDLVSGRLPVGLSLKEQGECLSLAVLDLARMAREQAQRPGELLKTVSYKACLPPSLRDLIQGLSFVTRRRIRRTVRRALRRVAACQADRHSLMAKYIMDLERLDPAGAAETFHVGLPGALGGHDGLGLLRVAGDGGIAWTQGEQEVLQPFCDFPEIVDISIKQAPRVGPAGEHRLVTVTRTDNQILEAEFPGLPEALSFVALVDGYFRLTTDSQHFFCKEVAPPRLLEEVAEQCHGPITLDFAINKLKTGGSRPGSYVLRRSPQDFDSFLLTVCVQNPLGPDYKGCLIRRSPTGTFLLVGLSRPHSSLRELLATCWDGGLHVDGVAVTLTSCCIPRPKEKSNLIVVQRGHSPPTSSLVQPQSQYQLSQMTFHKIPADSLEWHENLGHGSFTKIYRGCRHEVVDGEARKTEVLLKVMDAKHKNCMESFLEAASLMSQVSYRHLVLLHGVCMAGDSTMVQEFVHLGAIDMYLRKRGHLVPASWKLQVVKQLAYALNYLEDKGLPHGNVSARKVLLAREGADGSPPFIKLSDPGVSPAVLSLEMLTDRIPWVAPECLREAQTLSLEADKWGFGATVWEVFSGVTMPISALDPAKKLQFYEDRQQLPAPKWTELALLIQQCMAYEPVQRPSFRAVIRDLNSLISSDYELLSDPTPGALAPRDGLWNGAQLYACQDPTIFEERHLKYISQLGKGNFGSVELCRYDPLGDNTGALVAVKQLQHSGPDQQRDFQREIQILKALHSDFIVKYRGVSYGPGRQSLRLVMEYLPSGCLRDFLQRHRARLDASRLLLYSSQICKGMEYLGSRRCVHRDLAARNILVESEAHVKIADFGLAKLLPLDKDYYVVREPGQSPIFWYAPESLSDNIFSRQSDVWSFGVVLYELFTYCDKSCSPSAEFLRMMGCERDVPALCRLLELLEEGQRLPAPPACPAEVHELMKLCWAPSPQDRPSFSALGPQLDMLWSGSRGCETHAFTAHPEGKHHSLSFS

[2] = target: T2, Tyrosine-protein kinase JAK2 (Homo sapiens, UniProt O60674); format: ADME
T2 sequence (O60674 whole entry, the tested form may be a part): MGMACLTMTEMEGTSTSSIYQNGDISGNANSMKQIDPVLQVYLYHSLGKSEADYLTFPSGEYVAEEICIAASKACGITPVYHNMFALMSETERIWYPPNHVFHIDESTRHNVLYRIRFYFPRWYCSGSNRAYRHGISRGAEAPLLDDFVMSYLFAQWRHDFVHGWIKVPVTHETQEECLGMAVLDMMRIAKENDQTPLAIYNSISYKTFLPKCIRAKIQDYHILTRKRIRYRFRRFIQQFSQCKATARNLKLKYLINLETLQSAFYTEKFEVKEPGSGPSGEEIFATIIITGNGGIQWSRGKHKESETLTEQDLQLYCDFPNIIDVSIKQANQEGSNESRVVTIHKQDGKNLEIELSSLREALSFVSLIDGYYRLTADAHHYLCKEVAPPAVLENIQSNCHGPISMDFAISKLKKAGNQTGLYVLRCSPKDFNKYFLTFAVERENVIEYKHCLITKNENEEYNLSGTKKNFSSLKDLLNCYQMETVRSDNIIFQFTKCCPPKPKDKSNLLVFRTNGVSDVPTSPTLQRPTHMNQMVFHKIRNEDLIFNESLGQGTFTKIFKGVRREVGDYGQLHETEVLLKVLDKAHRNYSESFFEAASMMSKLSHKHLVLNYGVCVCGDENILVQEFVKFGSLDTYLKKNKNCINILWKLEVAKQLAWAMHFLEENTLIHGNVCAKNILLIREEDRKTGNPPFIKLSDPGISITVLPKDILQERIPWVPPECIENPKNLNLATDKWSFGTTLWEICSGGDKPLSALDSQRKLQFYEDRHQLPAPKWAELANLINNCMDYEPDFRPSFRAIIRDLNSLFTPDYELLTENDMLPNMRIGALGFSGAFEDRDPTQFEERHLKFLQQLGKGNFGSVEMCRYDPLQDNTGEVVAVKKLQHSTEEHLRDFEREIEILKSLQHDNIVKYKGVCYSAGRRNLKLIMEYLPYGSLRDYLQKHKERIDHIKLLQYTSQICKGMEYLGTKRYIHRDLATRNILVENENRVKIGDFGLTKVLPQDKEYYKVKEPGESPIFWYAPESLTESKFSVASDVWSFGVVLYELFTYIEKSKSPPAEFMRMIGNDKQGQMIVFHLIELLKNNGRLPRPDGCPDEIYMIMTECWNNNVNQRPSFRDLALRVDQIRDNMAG

[3] = target: Tyrosine-protein kinase JAK1 (Homo sapiens, UniProt P23458); test: Inhibition of recombinant human GST-tagged JAK1 cytoplasmic domain (866 to 1154 residues) expressed in baculovirus expression system using TK-substrate-biotin preincubated for 5 mins followed by substrate addition and measured after 30 mins by HTRF assay
Chain of Tyrosine-protein kinase JAK1 (P23458 whole entry, the tested form may be a part): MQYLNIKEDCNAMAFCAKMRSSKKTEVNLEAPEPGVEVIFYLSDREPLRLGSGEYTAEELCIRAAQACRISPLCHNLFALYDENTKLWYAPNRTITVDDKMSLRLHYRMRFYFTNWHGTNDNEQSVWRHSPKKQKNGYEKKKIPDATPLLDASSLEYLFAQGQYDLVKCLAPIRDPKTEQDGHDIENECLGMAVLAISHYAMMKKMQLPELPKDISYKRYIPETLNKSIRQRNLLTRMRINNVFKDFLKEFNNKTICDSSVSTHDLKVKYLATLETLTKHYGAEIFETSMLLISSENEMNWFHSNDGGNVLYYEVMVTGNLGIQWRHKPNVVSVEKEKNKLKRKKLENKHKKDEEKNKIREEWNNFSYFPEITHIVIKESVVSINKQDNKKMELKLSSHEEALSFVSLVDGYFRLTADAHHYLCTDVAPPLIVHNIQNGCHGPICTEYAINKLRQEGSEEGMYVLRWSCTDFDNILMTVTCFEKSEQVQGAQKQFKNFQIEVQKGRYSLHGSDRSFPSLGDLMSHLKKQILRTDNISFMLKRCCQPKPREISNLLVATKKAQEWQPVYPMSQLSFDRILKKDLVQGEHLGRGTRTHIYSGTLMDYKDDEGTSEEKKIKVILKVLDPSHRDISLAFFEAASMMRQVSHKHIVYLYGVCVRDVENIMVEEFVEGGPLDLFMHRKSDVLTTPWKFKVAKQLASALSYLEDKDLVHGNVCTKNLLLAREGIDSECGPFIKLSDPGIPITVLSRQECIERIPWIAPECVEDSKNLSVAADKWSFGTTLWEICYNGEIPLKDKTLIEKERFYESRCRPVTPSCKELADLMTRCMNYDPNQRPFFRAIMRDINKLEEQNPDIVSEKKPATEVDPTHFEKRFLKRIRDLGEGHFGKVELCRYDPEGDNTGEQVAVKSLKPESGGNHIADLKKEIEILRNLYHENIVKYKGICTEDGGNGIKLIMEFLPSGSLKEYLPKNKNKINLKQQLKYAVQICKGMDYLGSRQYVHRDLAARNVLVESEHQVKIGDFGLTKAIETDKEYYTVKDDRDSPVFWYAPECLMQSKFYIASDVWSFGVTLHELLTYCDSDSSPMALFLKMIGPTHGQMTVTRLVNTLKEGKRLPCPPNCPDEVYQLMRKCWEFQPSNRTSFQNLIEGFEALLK

[4] = target: Non-receptor tyrosine-protein kinase TYK2 (Homo sapiens, UniProt P29597); test: Inhibition of recombinant human N-terminal GST-tagged TYK2 cytoplasmic domain (833 to 1187 residues) expressed in baculovirus expression system using TK-substrate-biotin preincubated for 5 mins followed by substrate addition and measured after 30 mins by HTRF assay
Chain of Non-receptor tyrosine-protein kinase TYK2 (P29597 whole entry, the tested form may be a part): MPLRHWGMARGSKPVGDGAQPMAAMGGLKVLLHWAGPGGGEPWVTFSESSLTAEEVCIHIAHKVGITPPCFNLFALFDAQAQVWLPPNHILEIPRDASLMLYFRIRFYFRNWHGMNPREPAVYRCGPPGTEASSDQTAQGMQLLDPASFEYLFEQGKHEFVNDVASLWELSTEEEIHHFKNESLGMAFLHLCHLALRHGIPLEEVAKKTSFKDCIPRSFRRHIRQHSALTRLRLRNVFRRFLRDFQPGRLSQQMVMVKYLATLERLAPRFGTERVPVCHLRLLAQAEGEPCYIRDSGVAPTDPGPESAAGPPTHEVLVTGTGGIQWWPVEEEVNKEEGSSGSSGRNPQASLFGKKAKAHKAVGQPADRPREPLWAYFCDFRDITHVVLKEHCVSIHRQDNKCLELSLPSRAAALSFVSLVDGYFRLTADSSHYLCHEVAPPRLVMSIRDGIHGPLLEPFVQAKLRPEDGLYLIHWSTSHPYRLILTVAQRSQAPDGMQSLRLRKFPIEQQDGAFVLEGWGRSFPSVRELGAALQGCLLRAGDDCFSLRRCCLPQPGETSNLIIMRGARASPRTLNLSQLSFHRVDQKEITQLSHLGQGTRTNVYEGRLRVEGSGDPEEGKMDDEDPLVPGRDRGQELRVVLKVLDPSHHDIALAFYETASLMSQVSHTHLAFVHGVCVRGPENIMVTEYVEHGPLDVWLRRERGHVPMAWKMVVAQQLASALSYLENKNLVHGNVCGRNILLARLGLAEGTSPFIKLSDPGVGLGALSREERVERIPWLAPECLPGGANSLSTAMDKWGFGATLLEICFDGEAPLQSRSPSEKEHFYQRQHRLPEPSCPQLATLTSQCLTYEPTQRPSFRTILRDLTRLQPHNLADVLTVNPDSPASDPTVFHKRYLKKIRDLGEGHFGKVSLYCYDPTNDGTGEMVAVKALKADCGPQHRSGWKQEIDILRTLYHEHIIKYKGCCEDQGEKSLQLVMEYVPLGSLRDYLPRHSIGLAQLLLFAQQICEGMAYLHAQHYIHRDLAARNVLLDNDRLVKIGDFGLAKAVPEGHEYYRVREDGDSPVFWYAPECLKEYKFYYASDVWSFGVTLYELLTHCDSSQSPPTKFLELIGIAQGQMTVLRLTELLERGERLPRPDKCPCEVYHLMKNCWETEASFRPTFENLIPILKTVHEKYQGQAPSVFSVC

[5] = Cytotoxicity against resting mouse T cells assessed as reduction in cell viability at 10 uM measured after 72 hrs by MTS assay; format: cell-based
[6] = Cytotoxicity against IL-4-treated mouse T cells assessed as reduction in cell viability at 10 uM measured after 72 hrs by MTS assay; format: cell-based
RAW264.7 = test: Cytotoxicity against mouse RAW264.7 cells assessed as reduction in cell viability at 10 uM measured after 72 hrs by MTS assay; format: cell-based; details: raw264.7, 72 h
[7] = target: T3, Tyrosine-protein kinase JAK3 (Mus musculus) (UniProt Q62137); test: Inhibition of JAK3 in anti-CD3/-CD28 coated mouse T cells assessed as reduction in IL2-induced STAT5 phosphorylation at 10 uM preincubated for 1 hr followed by IL2 stimulation and measured after 30 mins by Western blot analysis; details: T cell
T3 sequence (whole entry): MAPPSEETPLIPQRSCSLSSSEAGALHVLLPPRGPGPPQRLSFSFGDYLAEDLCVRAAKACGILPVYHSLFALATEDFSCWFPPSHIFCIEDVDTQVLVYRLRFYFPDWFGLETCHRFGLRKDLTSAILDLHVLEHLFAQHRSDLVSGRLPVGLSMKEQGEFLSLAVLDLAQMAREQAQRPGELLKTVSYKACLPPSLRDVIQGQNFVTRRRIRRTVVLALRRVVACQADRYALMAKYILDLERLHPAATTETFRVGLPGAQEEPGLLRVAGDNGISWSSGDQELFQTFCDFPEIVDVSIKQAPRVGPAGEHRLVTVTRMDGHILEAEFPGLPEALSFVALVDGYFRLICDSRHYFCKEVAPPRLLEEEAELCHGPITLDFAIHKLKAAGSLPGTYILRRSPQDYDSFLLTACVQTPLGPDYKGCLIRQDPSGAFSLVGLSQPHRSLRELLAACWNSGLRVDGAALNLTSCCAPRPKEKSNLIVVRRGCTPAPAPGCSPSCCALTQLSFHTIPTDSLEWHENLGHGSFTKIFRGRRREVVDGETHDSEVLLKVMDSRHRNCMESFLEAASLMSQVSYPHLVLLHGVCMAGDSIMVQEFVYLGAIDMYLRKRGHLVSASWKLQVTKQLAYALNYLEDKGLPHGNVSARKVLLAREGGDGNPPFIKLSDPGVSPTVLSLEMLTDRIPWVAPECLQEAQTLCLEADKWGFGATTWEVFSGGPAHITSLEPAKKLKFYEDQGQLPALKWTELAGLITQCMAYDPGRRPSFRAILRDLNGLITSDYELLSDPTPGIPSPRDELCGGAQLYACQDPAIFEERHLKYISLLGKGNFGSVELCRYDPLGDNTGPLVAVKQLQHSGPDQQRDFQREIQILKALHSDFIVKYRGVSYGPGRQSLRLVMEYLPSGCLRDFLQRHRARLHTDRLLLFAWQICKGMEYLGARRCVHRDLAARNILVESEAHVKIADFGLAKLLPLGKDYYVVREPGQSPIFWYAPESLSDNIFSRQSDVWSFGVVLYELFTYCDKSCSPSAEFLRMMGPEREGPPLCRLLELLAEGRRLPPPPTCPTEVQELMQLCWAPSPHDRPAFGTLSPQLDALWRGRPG

[8] = target: T3, Tyrosine-protein kinase JAK3 (Mus musculus); test: Inhibition of JAK3 in anti-CD3/-CD28 coated mouse T cells assessed as reduction in IL15-induced STAT5 phosphorylation at 10 uM preincubated for 1 hr followed by […] and measured after 30 mins by Western blot analysis; details: T cell
[9] = target: T2, Tyrosine-protein kinase JAK2; test: Inhibition of recombinant human C-terminal His6-tagged JAK2 (808 to end residues) expressed in baculovirus infected Sf21 insect cells using Biotin-TYR1 (Biotin-(Ahx)-GAEEEIYAAFFA-COOH as substrate
Homo sapiens [10] = organism: Homo sapiens; test: Selectivity ratio of IC50 for inhibition of recombinant human C-terminal His6-tagged JAK2 (808 to end residues) expressed in baculovirus infected Sf21 insect cells to IC50 for inhibition of recombinant human GST-tagged JAK3 catalytic domain (811 to 1103 residues) expressed in Sf9 insect cells
Homo sapiens [11] = organism: Homo sapiens; test: Selectivity ratio of IC50 for inhibition of recombinant human GST-tagged JAK1 catalytic domain (845 to 1142 residues) expressed in Sf9 insect cells to IC50 for inhibition of recombinant human GST-tagged JAK3 catalytic domain (811 to 1103 residues) expressed in Sf9 insect cells

IC50 [1] | IC50 [2] | IC50 [3] | IC50 [4] | inhibition [7] | inhibition [8] | IC50 [9] | SMILES | Activity [5] | Activity [6] | Activity (RAW264.7) | Ratio IC50 (Homo sapiens [10]) | Ratio IC50 (Homo sapiens [11])
6.1 nM | 1410 nM | 1150 nM | > 3 µM | Active | Active |  | C/C=C/C(=O)Nc1ccc(-c2ccnc(Nc3ccc(N4CCOCC4)cc3)n2)cc1 | Non-Toxic | Non-Toxic | Non-Toxic |  | 
9.1 nM | 1080 nM | 1560 nM | > 3 µM | Active | Active |  | C=CC(=O)Nc1ccc(-c2ccnc(Nc3cnn(CCOC)c3)n2)cc1 | Non-Toxic | Non-Toxic | Non-Toxic |  | 
 |  |  |  |  |  | 120 nM | CC[C@H]1CN(C(=O)NCC(F)(F)F)C[C@H]1C1C=NC2=CN=C3NC=CC3N21 (stereo partly specified) |  |  |  | 19 | 49
